From patent publication US20240158446A1, “CYCLIC COMPOUND HAVING SELECTIVE INHIBITORY ACTION ON KRAS OVER HRAS AND NRAS” (CHUGAI SEIYAKU KABUSHIKI KAISHA, priority 2021, published 2024)
Where a SMILES comes first, the peptide text is derived from it. Bridges are numbered along the chain shown (N, C = ends). [ ]: non-standard residue; d: D form. The star is where a group is joined. hPhe(3,5-F2-4-CF3) = N[C@@H](CCc1cc(F)c(C(F)(F)F)c(F)c1)C(=O)O; NPrPhe(4-CF3) = CCCN[C@@H](Cc1ccc(C(F)(F)F)cc1)C(=O)O; NMeAbu(4,4,4-F3) = CN[C@@H](CC(F)(F)F)C(=O)O; NMeGly(cPent) = CN[C@H](C(=O)O)C1CCCC1; Ac4c(3,3-F2) = NC1(C(=O)O)CC(F)(F)C1; Nva(3-Et) = CCC(CC)[C@H](N)C(=O)O; NMeD = CN[C@@H](CC(=O)O)C(=O)O; Ac4c(3-oxa) = NC1(C(=O)O)COC1; NMeL = CN[C@@H](CC(C)C)C(=O)O; αMeS = C[C@](N)(CO)C(=O)O; Morpholide = C1CN(*)CCO1; Ac5c = NC1(C(=O)O)CCCC1; Aze = O=C(O)[C@@H]1CCN1; Sar = CNCC(=O)O; tBu = CC(C)(C)*; Allyl = C=CC*

Experiments:
[1] = biological target: GDP-bound KRAS wild-type protein (Homo sapiens, UniProt P01116); assay: Binding to KRAS by surface plasmon resonance (SPR), Single Cycle Kinetics; settings: SPR Single Cycle Kinetics, GDP-bound KRAS wild-type protein, 1:1 binding model; read-out: KRAS KD
[2] = biological target: GDP-bound HRAS wild-type protein (Homo sapiens, UniProt P01112); assay: Binding to HRAS by surface plasmon resonance (SPR), Single Cycle Kinetics; settings: SPR, GDP-bound HRAS wild-type protein vs GDP-bound KRAS wild-type protein
[3] = biological target: GDP-bound NRAS wild-type protein (Homo sapiens, UniProt P01111); assay: Binding to NRAS by surface plasmon resonance (SPR), Single Cycle Kinetics; settings: SPR, GDP-bound NRAS wild-type protein vs GDP-bound KRAS wild-type protein
GDP-bound NRAS wild-type protein, sequence (P01111 whole entry): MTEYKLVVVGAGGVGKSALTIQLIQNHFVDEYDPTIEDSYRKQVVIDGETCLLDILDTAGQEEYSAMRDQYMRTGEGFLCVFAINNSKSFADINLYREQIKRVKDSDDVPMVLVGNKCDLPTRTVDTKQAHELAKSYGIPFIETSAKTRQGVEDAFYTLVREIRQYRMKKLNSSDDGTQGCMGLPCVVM

GDP-bound KRAS wild-type protein, sequence (P01116 whole entry): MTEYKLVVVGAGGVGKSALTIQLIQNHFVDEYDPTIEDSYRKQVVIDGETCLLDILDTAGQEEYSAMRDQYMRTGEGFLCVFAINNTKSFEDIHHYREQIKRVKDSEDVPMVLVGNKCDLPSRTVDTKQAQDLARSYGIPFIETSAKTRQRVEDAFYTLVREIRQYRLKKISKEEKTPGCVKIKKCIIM
GDP-bound HRAS wild-type protein, sequence (P01112 whole entry): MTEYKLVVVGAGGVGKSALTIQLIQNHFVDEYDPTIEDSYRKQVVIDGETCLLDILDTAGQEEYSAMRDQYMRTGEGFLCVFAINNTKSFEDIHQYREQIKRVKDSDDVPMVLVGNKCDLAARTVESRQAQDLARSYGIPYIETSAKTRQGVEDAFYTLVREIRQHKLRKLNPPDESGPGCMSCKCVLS

Row | Structure (SMILES) | Kd [1] [nM] | HRAS/KRAS (ratio of KD value with respect to HRAS to KD value with respect to KRAS) [2] | NRAS/KRAS (ratio of KD value with respect to NRAS to KD value with respect to KRAS) [3]
1 | C=CCOC[C@]1(C)NC(=O)[C@@H]2CCCN2C(=O)[C@H](CCc2cc(F)c(C(F)(F)F)c(F)c2)NC(=O)CN(C)C(=O)[C@H](Cc2ccc(C(F)(F)F)cc2)N(CCC)C(=O)[C@@H]2CCN2C(=O)CN(C)C(=O)[C@H]([C@@H](C)CC)NC(=O)[C@H](CC(C)C)N(C)C(=O)C[C@@H](C(=O)N2CCOCC2)N(C)C(=O)[C@H](C2CCCC2)N(C)C1=O [PP0799] ([NMeL]I[Sar][Aze][NPrPhe(4-CF3)][Sar][hPhe(3,5-F2-4-CF3)]P[αMeS](Allyl)[NMeGly(cPent)][NMeD]-Morpholide; lactam N-11) | 1.5 | B (a compound having 3 or more and less than 10 is denoted as B) | C (A compound having a KD ratio of 0.1 or more and less than 3 is denoted as C)
2 | CCCN1C(=O)[C@@H]2CCN2C(=O)CN(C)C(=O)[C@H]([C@@H](C)CC)NC(=O)[C@H](CC(C)C)N(C)C(=O)C[C@@H](C(=O)N2CCOCC2)N(C)C(=O)[C@H](C2CCCC2)N(C)C(=O)[C@](C)(COC(C)(C)C)NC(=O)[C@@H]2CCCN2C(=O)[C@H](CCc2cc(F)c(C(F)(F)F)c(F)c2)NC(=O)CN(C)C(=O)[C@@H]1Cc1ccc(C(F)(F)F)cc1 [PP0800] ([NMeL]I[Sar][Aze][NPrPhe(4-CF3)][Sar][hPhe(3,5-F2-4-CF3)]P[αMeS](tBu)[NMeGly(cPent)][NMeD]-Morpholide; lactam N-11) | 2.7 | B (a compound having 3 or more and less than 10 is denoted as B) | C (A compound having a KD ratio of 0.1 or more and less than 3 is denoted as C)
3 | CCCN1C(=O)[C@@H]2CCN2C(=O)CN(C)C(=O)[C@H]([C@@H](C)CC)NC(=O)[C@H](CC(C)C)N(C)C(=O)C[C@@H](C(=O)N2CCOCC2)N(C)C(=O)[C@H](C2CCCC2)N(C)C(=O)C2(COC2)NC(=O)[C@@H]2CCCN2C(=O)[C@H](CCc2cc(F)c(C(F)(F)F)c(F)c2)NC(=O)CN(C)C(=O)[C@@H]1Cc1ccc(C(F)(F)F)cc1 [PP0801] ([NMeL]I[Sar][Aze][NPrPhe(4-CF3)][Sar][hPhe(3,5-F2-4-CF3)]P[Ac4c(3-oxa)][NMeGly(cPent)][NMeD]-Morpholide; lactam N-11) | 0.45 | B (a compound having 3 or more and less than 10 is denoted as B) | C (A compound having a KD ratio of 0.1 or more and less than 3 is denoted as C)
4 | CCCN1C(=O)[C@@H]2CCN2C(=O)CN(C)C(=O)[C@H]([C@@H](C)CC)NC(=O)[C@H](CC(C)C)N(C)C(=O)C[C@@H](C(=O)N2CCOCC2)N(C)C(=O)[C@H](C2CCCC2)N(C)C(=O)C2(CC(F)(F)C2)NC(=O)[C@@H]2CCCN2C(=O)[C@H](CCc2cc(F)c(C(F)(F)F)c(F)c2)NC(=O)CN(C)C(=O)[C@@H]1Cc1ccc(C(F)(F)F)cc1 [PP0802] ([NMeL]I[Sar][Aze][NPrPhe(4-CF3)][Sar][hPhe(3,5-F2-4-CF3)]P[Ac4c(3,3-F2)][NMeGly(cPent)][NMeD]-Morpholide; lactam N-11) | 0.082 | B (a compound having 3 or more and less than 10 is denoted as B) | C (A compound having a KD ratio of 0.1 or more and less than 3 is denoted as C)
5 | CCCN1C(=O)[C@@H]2CCN2C(=O)CN(C)C(=O)[C@H]([C@@H](C)CC)NC(=O)[C@H](CC(C)C)N(C)C(=O)C[C@@H](C(=O)N2CCOCC2)N(C)C(=O)[C@H](CC(F)(F)F)N(C)C(=O)C2(CCCC2)NC(=O)[C@@H]2CCCN2C(=O)[C@H](CCc2cc(F)c(C(F)(F)F)c(F)c2)NC(=O)CN(C)C(=O)[C@@H]1Cc1ccc(C(F)(F)F)cc1 [PP0803] ([NMeL]I[Sar][Aze][NPrPhe(4-CF3)][Sar][hPhe(3,5-F2-4-CF3)]P[Ac5c][NMeAbu(4,4,4-F3)][NMeD]-Morpholide; lactam N-11) | 1.7 | B (a compound having 3 or more and less than 10 is denoted as B) | C (A compound having a KD ratio of 0.1 or more and less than 3 is denoted as C)
6 | CCCN1C(=O)[C@@H]2CCN2C(=O)CN(C)C(=O)[C@H](C(CC)CC)NC(=O)[C@H](CC(C)C)N(C)C(=O)C[C@@H](C(=O)N2CCOCC2)N(C)C(=O)[C@H](C2CCCC2)N(C)C(=O)C2(CCCC2)NC(=O)[C@@H]2CCCN2C(=O)[C@H](CCc2cc(F)c(C(F)(F)F)c(F)c2)NC(=O)CN(C)C(=O)[C@@H]1Cc1ccc(C(F)(F)F)cc1 [PP0804] ([NMeL][Nva(3-Et)][Sar][Aze][NPrPhe(4-CF3)][Sar][hPhe(3,5-F2-4-CF3)]P[Ac5c][NMeGly(cPent)][NMeD]-Morpholide; lactam N-11) | 1.4 | B (a compound having 3 or more and less than 10 is denoted as B) | C (A compound having a KD ratio of 0.1 or more and less than 3 is denoted as C)
